Data published in patent EP4768487A1, “FUSED LACTAM RING COMPOUND AND USE THEREOF” (Chengdu Zenitar Biomedical Technology Co., Ltd., priority 2023, dated 2025).
pIC50: −log10 of the molar value. Like-named read-outs stand apart in the source and are kept apart here.

Assays:
[1] = test system: MDA-MB-436 breast cancer subcutaneous xenograft tumor model; assay: In vivo pharmacodynamic study of compound 2 in MDA-MB-436 subcutaneous xenograft tumor model; settings: oral once daily, 30 days
Procedure: Experimental process: Twenty-four female NOD/SCID mice were used in the experiment. […] All groups were subjected to oral administration once daily. Meanwhile, the mice were weighed every 2 days, and the length and width of the tumors were measured with a vernier caliper. After 30 days of administration, the tumor-bearing mice were anesthetized and sacrificed. The tumor tissues were dissected, weighed, and photographed, and the tumor growth inhibition rates were calculated.

PARP1 = molecular target: T1, PARP1 (Homo sapiens, UniProt P09874); assay: PARP1 enzyme assay (histone-coated plate, chemiluminescence); type: biochemical; settings: PARP1 0.02 nM, DNA 0.8 nM, NAD+ 3.5 µM; read-out: PARP-1 IC50
T1 construct: purchased BPS 80501
T1 sequence (P09874 whole entry): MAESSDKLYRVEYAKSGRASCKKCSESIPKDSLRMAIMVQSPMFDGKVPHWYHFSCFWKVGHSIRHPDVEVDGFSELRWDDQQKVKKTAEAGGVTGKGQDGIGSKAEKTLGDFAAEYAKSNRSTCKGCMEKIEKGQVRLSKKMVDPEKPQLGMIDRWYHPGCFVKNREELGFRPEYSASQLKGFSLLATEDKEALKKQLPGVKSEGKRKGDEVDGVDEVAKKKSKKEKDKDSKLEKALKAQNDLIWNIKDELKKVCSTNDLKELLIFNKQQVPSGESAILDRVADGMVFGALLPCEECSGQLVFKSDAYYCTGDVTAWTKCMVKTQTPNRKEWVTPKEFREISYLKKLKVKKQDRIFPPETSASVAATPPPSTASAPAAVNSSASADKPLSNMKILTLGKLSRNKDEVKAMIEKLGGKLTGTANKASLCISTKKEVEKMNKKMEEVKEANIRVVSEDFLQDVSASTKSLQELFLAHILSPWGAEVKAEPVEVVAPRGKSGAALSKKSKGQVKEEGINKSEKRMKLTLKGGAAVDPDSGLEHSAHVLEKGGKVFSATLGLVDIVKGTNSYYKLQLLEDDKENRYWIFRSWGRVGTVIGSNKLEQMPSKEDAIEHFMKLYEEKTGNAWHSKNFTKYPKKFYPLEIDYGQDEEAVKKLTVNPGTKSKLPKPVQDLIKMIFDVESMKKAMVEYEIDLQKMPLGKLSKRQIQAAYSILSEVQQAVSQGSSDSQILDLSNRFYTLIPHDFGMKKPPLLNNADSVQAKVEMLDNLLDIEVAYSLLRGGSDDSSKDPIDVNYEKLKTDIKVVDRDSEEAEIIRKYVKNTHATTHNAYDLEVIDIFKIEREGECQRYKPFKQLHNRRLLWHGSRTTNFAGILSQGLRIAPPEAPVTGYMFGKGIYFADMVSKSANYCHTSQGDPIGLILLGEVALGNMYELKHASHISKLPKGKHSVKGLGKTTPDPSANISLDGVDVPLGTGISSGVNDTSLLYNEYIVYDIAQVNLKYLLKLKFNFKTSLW

[2] = Cerebrospinal fluid and plasma distribution in vivo; settings: rat, male rats, intravenous 5 mg/kg, n = 1
[3] = cerebrospinal fluid, read-out: Cerebrospinal fluid

| pIC50 (PARP1) | concentration at 0.25 h [2, 3] [ng/g] | concentration at 2 h [2, 3] [ng/g] | concentration at 0.25 h ([2]; plasma, read-out: Plasma) [ng/mL] | concentration at 2 h ([2]; plasma, read-out: Plasma) [ng/mL] | SMILES | tumor growth inhibition rate ([1]; 1 mg/kg) [%] | tumor growth inhibition rate ([1]; 3 mg/kg) [%] | tumor inhibitory effect compared with the reference drug Olaparib 100 mg/kg group (in words) ([1]; 3 mg/kg) |
| --- | --- | --- | --- | --- | --- | --- | --- | --- |
|  |  |  |  |  | CCc1cc2c([nH]c1=O)CC(CN1CCN(c3ccc(C(=O)NC)nc3F)CC1)OC2 (centres unmarked) [Compound 2, 5-(4-((3-Ethyl-2-oxo-1,5,7,8-tetrahydro-2H-pyrano[4,3-b]pyridin-7-yl)methyl)piperazin-1-yl)-6-fluoro-N-methyl picolinamide] | 92.61 | 95.74 | significantly superior |
| ≥ 7.30 | 60 | 19 | 8790 | 5560 | CNC(=O)c1ccc(N2CCN(CC3Cc4[nH]c(=O)c(C)cc4CO3)CC2)c(Cl)n1 (centres unmarked) [Example 74, 6-Chloro-N-methyl-5-(4-((3-methyl-2-oxo-1,5,7,8-tetrahydro-2H-pyrano[4,3-b]pyridin-7-yl)methyl)piperazin-1-yl)picolinamide] |  |  |  |
